# Data taken from patent US7378387B2, “Method of suppressing immune response by reducing intracellular content of glutathione in macrophages and monocytes” (Ajinomoto Co., Inc., priority 1997, dated 2008).
# What was measured:
# IL-6 [1] = test: IL-6 production of MΦ from JaK3 knock out mice (Example 6); assay type: in vivo; settings: LPS stimulation; 1 mg/ml in city water, 24 days; control knock out mice 962 pg/ml
# Description: (§1) A stimulator was added to 1×10^6 MΦ, and the incubation was conducted at 37° C. for 2 days in a CO2 incubator. After centrifugation, the culture supernatant was collected.
# The amount of IL-6 was determined using IL-6 dependent mouse hybridoma MH60 cells (J. Eur. Immunol., vol. 18, p. 951, 1988). One hundred microliters of the culture supernatant were added to 100 μl of the MH60 cell suspension adjusted to 1×10^5 cells/ml in a 10% FCS-containing RPMI medium, and the mixed solution was incubated at 37° C. for 2 days in a CO2 incubator. […] Immediately after the dissolution, an absorbance of 570 nm was measured with an immunometer (supplied by Bio-Rad).
# Macrophages (MΦ) were prepared from knock out mice deficient in a molecule participating in a signal transduction system from a receptor, and the function of the redox system was analyzed. […]
# Peritoneal cells were harvested from three groups of knock out mice, and stimulated with LPS, IL-2, IFNγ and a combination thereof. The NO production, the IL-6 production and the IL-12 production were measured. […] Then, the IL-6 production was analyzed. In LPS stimulation, the amount was detected as 962 pg/ml in the knock out mice derived MΦ culture, 122 pg/ml in the NAC group, and 82 pg/ml in the GSH-OEt group. […]
# [2] = tested on: insulin-non-dependent diabetes mellitus; test: Blood sugar level in db/db mice (Example 26); assay type: in vivo; settings: intraperitoneal, age 4 to 9 weeks, three times per week; at satiation; saline 100
# Description: db/db mice purchased from Nippon Clair, Co. were naturally mated together. Among the off spring mice, a colony of db/db mice with a high frequency of the spontaneous onset of insulin-non-dependent diabetes mellitus was established. Male db/db mice from the colony were used for the present experiment. Chemical agents were intraperitoneally administered to the db/db mice aged 4 to 9 weeks three times per week, in total 18 times; and based on the level of blood sugar in the mice at satiation, the effects of the chemical agents on the improvement of the diseased conditions of insulin-non-dependent diabetes mellitus were followed once per week. The doses were the same as in Example 24.
# PGE2 = PGE2 in macrophage culture supernatant, advanced tumor-bearing mice (Example 4); assay type: in vivo, CDF1 mice; settings: oral 1 mg/0.5 ml/h for 10 days, COLON 26 mice; control mice 32 ng/ml
# Description: After the completion of the above-mentioned incubation, the culture supernatant was recovered. The amount of IL-6 was measured by the proliferation assay using an IL-6-dependent cell strain, MH60, the amount of PGE2 was measured using an ELISA-kit, and the amount of NO was measured using a Griess-Romijn reagent. These measurements were conducted by a method which those skilled in the art usually employ.
# The COLON 26 transplantable tumor was implanted subcutaneously in the back portion of CDF1 mice at a density of 5×10^5 cells/mouse. […] Glutathione ethyl ester was orally administered to the mice every day in a dosage of 1 mg/0.5 ml/h. This oral administration was continued for 10 days. The peritoneal cells were collected from the mice in the same manner as in Example 3. Peritoneal macrophages were collected, and suspended in a phenol red-free RPMI 1640 medium containing 10% fetal calf serum to a density 3×10^5 cells/ml. The suspension was charged into a Lab-Tek Chamber Slide (#136439, supplied by Nunc) in an amount of 100 μl, and the incubation was conducted in 5% CO2 at 37° C. for 3 hours. After the nonadherent cells were removed, 200 μl of above-mentioned medium free from serum were added thereto, and 10 μM of monochlorobimane were then added thereto. […]
# IL-6 [3] = test: IL-6 in culture supernatant of macrophage-like cells from rheumatoid arthritis patients (Example 17); assay type: cell-based, human; settings: added at 2 mM
# Description: as §1
# The amount of IL-6 was determined using IL-6 dependent mouse hybridoma MH60 cells (J. Eur. Immunol., vol. 18, p. 951, 1988). One hundred microliters of the culture supernatant were added to 100 μl of the MH60 cell suspension adjusted to 1×10^5 cells/ml in a 10% FCS-containing RPMI medium, and the mixed solution was incubated at 37° C. for 2 days in a CO2 incubator. Subsequently, 10 μl of MTT (supplied by Sigma Co.) solution adjusted to a concentration of 5 mg/ml in the same medium were added thereto, and the reaction was conducted at 37° C. for 5 hours. After the completion of the reaction, the centrifugation was conducted. The supernatant (160 μl) was removed, and 100 μl of a mixture of hydrochloric acid and propanol were added to the residue. The suspension was conducted using a pipetman to dissolve the cells. Immediately after the dissolution, an absorbance of 570 nm was measured with an immunometer (supplied by Bio-Rad).
# By the same manner as in Example 3, macrophage-like cells were collected from tissues of rheumatoid arthritis patients, and were then suspended and adjusted in a phenol red-free RPMI 1640 culture medium supplemented with 10% fetal calf serum to 3×10^6 cells/ml. […]
SMILES,IL-6 production (IL-6 [1]) [pg/mL],"Relative ratio % of blood sugar level, 6 weeks [2] [%]","Relative ratio % of blood sugar level, 7 weeks [2] [%]","Relative ratio % of blood sugar level, 8 weeks [2] [%]",amount of PGE2 (PGE2) [ng/mL],IL-6 in the culture supernatant of the macrophages (IL-6 [3])
"CC(=O)N[C@@H](CS)C(=O)O [NAC, N-acetylcysteine, reference compound]",122,,,,,
"CC(=O)N[C@@H](CSSC[C@H](NC(C)=O)C(=O)O)C(=O)O [(NAC)2, N,N′-diacetylcystine]",,95,100,98,,
"CCOC(=O)CNC(=O)[C@H](CS)NC(=O)CC[C@H](N)C(=O)O [GSH-OEt, glutathione monoethyl ester]",82,,,,6.5,prominently decreased
"COC(=O)[C@H](CSSC[C@H](NC(C)=O)C(=O)OC)NC(C)=O [(NAC-OMe)2, N,N′-diacetylcystine dimethyl ester]",,94,92,93,,
